In ChEMBL document CHEMBL2440076, “New triarylpyrazoles as broad-spectrum anticancer agents: design, synthesis, and biological evaluation” (Eur J Med Chem, 2013):

Assays:
[1] = test system: BT-549; test: Growth inhibition of human BT549 cells assessed as cell growth at 10 uM after 48 hrs by sulforhodamine B assay; assay type: functional; conditions: BT-549, 48 h, read-out: Activity
[2] = test system: MCF7; test: Growth inhibition of human MCF7 cells assessed as cell growth at 10 uM after 48 hrs by sulforhodamine B assay; assay type: functional; conditions: MCF7, 48 h, read-out: Activity
[3] = test system: MDA-MB-231; test: Growth inhibition of human MDA-MB-231 cells assessed as cell growth at 10 uM after 48 hrs by sulforhodamine B assay; assay type: functional; conditions: MDA-MB-231, 48 h, read-out: Activity
[4] = test system: UO-31; test: Growth inhibition of human UO31 cells assessed as cell growth at 10 uM after 48 hrs by sulforhodamine B assay; assay type: functional; conditions: UO-31, 48 h, read-out: Activity
[5] = test system: CAKI-1; test: Growth inhibition of human CAKI-1 cells assessed as cell growth at 10 uM after 48 hrs by sulforhodamine B assay; assay type: functional; conditions: CAKI-1, 48 h, read-out: Activity
[6] = test system: NCI-H522; test: Growth inhibition of human NCI-H522 cells after 48 hrs by sulforhodamine B assay; assay type: functional; conditions: NCI-H522, 48 h
[7] = test system: COLO 205; test: Growth inhibition of human COLO205 cells after 48 hrs by sulforhodamine B assay; assay type: functional; conditions: COLO 205, 48 h
[8] = test system: NCI-H322M; test: Growth inhibition of human NCI-H322M cells after 48 hrs by sulforhodamine B assay; assay type: functional; conditions: for CC50: read-out: LC50 (the source's name)
[9] = test system: RPMI-8226; test: Growth inhibition of human RPMI8226 cells after 48 hrs by sulforhodamine B assay; assay type: functional, cell-based; conditions: RPMI-8226, 48 h; for CC50: read-out: LC50 (the source's name)
[10] = test system: HL-60(TB); test: Growth inhibition of human HL-60(TB) cells after 48 hrs by sulforhodamine B assay; assay type: functional; conditions: HL-60, 48 h; for CC50: read-out: LC50 (the source's name)
[11] = test system: CCRF-CEM; test: Growth inhibition of human CCRF-CEM cells after 48 hrs by sulforhodamine B assay; assay type: functional
[12] = test system: ACHN; test: Growth inhibition of human ACHN cells assessed as cell growth at 10 uM after 48 hrs by sulforhodamine B assay; assay type: functional; conditions: read-out: Activity
[13] = Growth inhibition of human NCI-ADR-RES cells assessed as cell growth at 10 uM after 48 hrs by sulforhodamine B assay; assay type: functional; conditions: read-out: Activity
[14] = test system: OVCAR-5; test: Growth inhibition of human OVCAR5 cells assessed as cell growth at 10 uM after 48 hrs by sulforhodamine B assay; assay type: functional; conditions: OVCAR-5, 48 h, read-out: Activity
[15] = test system: OVCAR-8; test: Growth inhibition of human OVCAR8 cells assessed as cell growth at 10 uM after 48 hrs by sulforhodamine B assay; assay type: functional; conditions: OVCAR-8, 48 h, read-out: Activity
[16] = test system: UACC-62; test: Growth inhibition of human UACC62 cells assessed as cell growth at 10 uM after 48 hrs by sulforhodamine B assay; assay type: functional; conditions: UACC-62, 48 h, read-out: Activity
[17] = test system: M14; test: Growth inhibition of human M14 cells assessed as cell growth at 10 uM after 48 hrs by sulforhodamine B assay; assay type: functional; conditions: M14, 48 h, read-out: Activity
[18] = test system: SW-620; test: Growth inhibition of human SW620 cells assessed as cell growth at 10 uM after 48 hrs by sulforhodamine B assay; assay type: functional; conditions: SW-620, 48 h, read-out: Activity
[19] = Growth inhibition of human HCC2998 cells assessed as cell growth at 10 uM after 48 hrs by sulforhodamine B assay; assay type: functional; conditions: HCC 2998, 48 h, read-out: Activity
[20] = test system: COLO 205; test: Growth inhibition of human COLO205 cells assessed as cell growth at 10 uM after 48 hrs by sulforhodamine B assay; assay type: functional; conditions: COLO 205, 48 h, read-out: Activity
[21] = test system: NCI-H522; test: Growth inhibition of human NCI-H522 cells assessed as cell growth at 10 uM after 48 hrs by sulforhodamine B assay; assay type: functional; conditions: NCI-H522, 48 h, read-out: Activity
[22] = test system: HOP-92; test: Growth inhibition of human HOP92 cells assessed as cell growth at 10 uM after 48 hrs by sulforhodamine B assay; assay type: functional; conditions: HOP-92, 48 h, read-out: Activity
[23] = test system: BT-549; test: Growth inhibition of human BT549 cells after 48 hrs by sulforhodamine B assay; assay type: functional; conditions: BT-549, 48 h
[24] = Growth inhibition of human Hs 578T cells after 48 hrs by sulforhodamine B assay; assay type: functional; conditions: for CC50: read-out: LC50 (the source's name)
[25] = test system: MDA-MB-231; test: Growth inhibition of human MDA-MB-231 cells after 48 hrs by sulforhodamine B assay; assay type: functional; conditions: MDA-MB-231, 48 h
[26] = test system: TK-10; test: Growth inhibition of human TK10 cells after 48 hrs by sulforhodamine B assay; assay type: functional; conditions: TK-10, 48 h; for CC50: read-out: LC50 (the source's name)
[27] = test system: CAKI-1; test: Growth inhibition of human CAKI-1 cells after 48 hrs by sulforhodamine B assay; assay type: functional; conditions: CAKI-1, 48 h; for CC50: read-out: LC50 (the source's name)
[28] = test system: 786-0; test: Growth inhibition of human 786-0 cells after 48 hrs by sulforhodamine B assay; assay type: functional; conditions: 786-0, 48 h; for CC50: read-out: LC50 (the source's name)
[29] = test system: OVCAR-8; test: Growth inhibition of human OVCAR8 cells after 48 hrs by sulforhodamine B assay; assay type: functional; conditions: OVCAR-8, 48 h; for CC50: read-out: LC50 (the source's name)
[30] = test system: SK-MEL-28; test: Growth inhibition of human SK-MEL-28 cells after 48 hrs by sulforhodamine B assay; assay type: functional; conditions: SK-MEL-28, 48 h
[31] = test system: MDA-MB-435; test: Growth inhibition of human MDA-MB-435 cells after 48 hrs by sulforhodamine B assay; assay type: functional, cell-based; conditions: MDA-MB-435, 48 h; for CC50: read-out: LC50 (the source's name)
[32] = test system: Malme-3M; test: Growth inhibition of human MALME-3M cells after 48 hrs by sulforhodamine B assay; assay type: functional
[33] = test system: SF-268; test: Growth inhibition of human SF268 cells after 48 hrs by sulforhodamine B assay; assay type: functional; conditions: SF-268, 48 h; for CC50: read-out: LC50 (the source's name)
[34] = test system: K562; test: Growth inhibition of human K562 cells assessed as cell growth at 10 uM after 48 hrs by sulforhodamine B assay; assay type: functional; conditions: K562, 48 h, read-out: Activity

SMILES: COc1cc(-c2nn(-c3cccc(NC(=O)c4ccc(N5CCOCC5)c(C(F)(F)F)c4)c3)cc2-c2ccncc2)ccc1Cl
- growth at 10 µM [1]: 14.3%
- growth at 10 µM [2]: 8.85%
- growth at 10 µM [3]: -25.2%
- growth at 10 µM [4]: 24.6%
- growth at 10 µM [5]: 39.9%
- GI50 [6]: 0.107 µM
- LC50 (concentration killing 50% of cells) [6]: > 100 µM
- TGI [6]: 3.53 µM
- GI50 [7]: 0.342 µM
- LC50 (concentration killing 50% of cells) [7]: 4.15 µM
- TGI [7]: 1.15 µM
- GI50 [8]: 0.603 µM
- TGI [8]: 94.4 µM
- CC50 [8]: > 100 µM
- GI50 [9]: 0.339 µM
- IC50 [9]: 0.34 µM
- TGI [9]: > 100 µM
- CC50 [9]: > 100 µM
- GI50 [10]: 0.298 µM
- TGI [10]: > 100 µM
- CC50 [10]: > 100 µM
- GI50 [11]: 0.236 µM
- LC50 [11]: > 100 µM
- TGI [11]: > 100 µM
- growth at 10 µM [12]: 21.3%
- growth at 10 µM [13]: -7.13%
- growth at 10 µM [14]: 34.7%
- growth at 10 µM [15]: 5.23%
- growth at 10 µM [16]: 8.35%
- growth at 10 µM [17]: 1.42%
- growth at 10 µM [18]: 25.2%
- growth at 10 µM [19]: 8.82%
- growth at 10 µM [20]: -43.4%
- growth at 10 µM [21]: 0.2%
- growth at 10 µM [22]: 11.5%
- GI50 [23]: 1.41 µM
- LC50 (50% lethal concentration) [23]: > 100 µM
- TGI [23]: > 100 µM
- GI50 [24]: 0.262 µM
- TGI [24]: > 100 µM
- CC50 [24]: > 100 µM
- GI50 [25]: 0.299 µM
- LC50 [25]: > 100 µM
- TGI [25]: 2.39 µM
- GI50 [26]: 1.49 µM
- TGI [26]: 45.3 µM
- CC50 [26]: > 100 µM
- GI50 [27]: 0.36 µM
- TGI [27]: 8.12 µM
- CC50 [27]: > 100 µM
- GI50 [28]: 0.819 µM
- CC50 [28]: > 100 µM
- GI50 [29]: 0.468 µM
- TGI [29]: > 100 µM
- CC50 [29]: > 100 µM
- GI50 [30]: 1.39 µM
- LC50 [30]: > 100 µM
- TGI [30]: > 100 µM
- GI50 [31]: 0.0266 µM
- IC50 [31]: 0.027 µM
- TGI [31]: 0.0914 µM
- CC50 [31]: > 100 µM
- GI50 [32]: 0.129 µM
- LC50 (concentration killing 50% of starting cells) [32]: > 100 µM
- TGI [32]: 5.1 µM
- GI50 [33]: 0.668 µM
- TGI [33]: > 100 µM
- CC50 [33]: > 100 µM
- growth at 10 µM [34]: 1.22%

SMILES: O=C(Nc1cccc(-n2cc(-c3ccncc3)c(-c3ccc(Cl)c(O)c3)n2)c1)c1ccc(N2CCOCC2)c(C(F)(F)F)c1
- growth at 10 µM [1]: 63.6%
- growth at 10 µM [2]: 60.6%
- growth at 10 µM [3]: 23.4%
- growth at 10 µM [4]: 36.9%
- growth at 10 µM [5]: 81.2%
- GI50 [6]: 2.31 µM
- LC50 (concentration killing 50% of cells) [6]: > 50 µM
- TGI [6]: 44 µM
- GI50 [7]: > 50 µM
- LC50 (concentration killing 50% of cells) [7]: > 50 µM
- TGI [7]: > 50 µM
- GI50 [8]: > 50 µM
- TGI [8]: > 50 µM
- CC50 [8]: > 50 µM
- GI50 [9]: 1.4 µM
- IC50 [9]: 1.4 µM
- TGI [9]: 12.5 µM
- CC50 [9]: > 50 µM
- GI50 [10]: 3.81 µM
- TGI [10]: > 50 µM
- CC50 [10]: > 50 µM
- GI50 [11]: 1.82 µM
- LC50 [11]: > 50 µM
- TGI [11]: > 50 µM
- growth at 10 µM [12]: 36.6%
- growth at 10 µM [13]: 43.9%
- growth at 10 µM [14]: 116%
- growth at 10 µM [15]: 37%
- growth at 10 µM [16]: 49.2%
- growth at 10 µM [17]: 22.7%
- growth at 10 µM [18]: 6.29%
- growth at 10 µM [19]: 56.4%
- growth at 10 µM [20]: 96.1%
- growth at 10 µM [21]: 39.6%
- growth at 10 µM [22]: 10.2%
- GI50 [23]: 19.4 µM
- LC50 (50% lethal concentration) [23]: > 50 µM
- TGI [23]: > 50 µM
- GI50 [24]: 1.85 µM
- TGI [24]: > 50 µM
- CC50 [24]: > 50 µM
- GI50 [25]: 0.975 µM
- LC50 [25]: > 50 µM
- TGI [25]: 15.6 µM
- GI50 [26]: 21.3 µM
- TGI [26]: > 50 µM
- CC50 [26]: > 50 µM
- GI50 [27]: 2.78 µM
- TGI [27]: 24.6 µM
- CC50 [27]: > 50 µM
- GI50 [28]: 2.83 µM
- TGI [28]: 12.5 µM
- CC50 [28]: 46.3 µM
- GI50 [29]: 3.16 µM
- TGI [29]: > 50 µM
- CC50 [29]: > 50 µM
- GI50 [30]: 1.5 µM
- LC50 [30]: 42.9 µM
- TGI [30]: 6.04 µM
- GI50 [31]: 2.04 µM
- IC50 [31]: 2.04 µM
- TGI [31]: > 50 µM
- CC50 [31]: > 50 µM
- GI50 [32]: 1.25 µM
- LC50 (concentration killing 50% of starting cells) [32]: > 50 µM
- TGI [32]: 4.08 µM
- GI50 [33]: 5.58 µM
- TGI [33]: > 50 µM
- CC50 [33]: > 50 µM
- growth at 10 µM [34]: 7.96%
